Measured values: ChEMBL document CHEMBL2010712, “Design and synthesis of orally available MEK inhibitors with potent in vivo antitumor efficacy” (Bioorg Med Chem Lett, 2012)
The source made the active and inactive calls. The calls are words filed in the database; no cut-off is given here.

How the values were obtained:
[1] = system: COLO 205; assay: Cytotoxicity against human COLO205 cells after 72 hrs by MTS assay; conditions: COLO 205, 72 h
[2] = system: A-375; assay: Cytotoxicity against human A375 cells after 72 hrs by MTS assay; conditions: A-375, 72 h
[3] = Half life in human liver microsomes; format: ADME, Microsome
[4] = Half life in rat liver microsomes; format: ADME, Microsome
[5] = molecular target: Dual specificity mitogen-activated protein kinase kinase 1 (Homo sapiens, UniProt Q02750); assay: Inhibition of MEK1-mediated ERK1 phosphorylation using IPTTPITTYFFFK-5FAM-COOH as substrate by fluorescent polarization assay
[6] = molecular target: Tyrosine-protein kinase ABL1 (Homo sapiens) (UniProt P00519); assay: Inhibition of ABL1 at 10 uM
[7] = molecular target: RAC-gamma serine/threonine-protein kinase (Homo sapiens) (UniProt Q9Y243); assay: Inhibition of AKT3 at 10 uM
[8] = molecular target: RAF proto-oncogene serine/threonine-protein kinase (Homo sapiens) (UniProt P04049); assay: Inhibition of c-RAF at 10 uM
[9] = molecular target: Calcium/calmodulin-dependent protein kinase type 1D (Homo sapiens) (UniProt Q8IU85); assay: Inhibition of CAMK1delta at 10 uM
[10] = molecular target: Cyclin-dependent kinase 2/cyclin A (Homo sapiens) (UniProt P24941+P20248+P78396); assay: Inhibition of CDK2/cyclin A at 10 uM; format: protein-complex assay
[11] = molecular target: Hepatocyte growth factor receptor (Homo sapiens) (UniProt P08581); assay: Inhibition of cMET at 10 uM
[12] = molecular target: Proto-oncogene tyrosine-protein kinase Src (Homo sapiens) (UniProt P12931); assay: Inhibition of cSRC at 10 uM
[13] = molecular target: Epidermal growth factor receptor (Homo sapiens) (UniProt P00533); assay: Inhibition of EGFR at 10 uM
[14] = molecular target: Glycogen synthase kinase-3 beta (Homo sapiens) (UniProt P49841); assay: Inhibition of GSK3beta at 10 uM
[15] = molecular target: Insulin receptor (Homo sapiens) (UniProt P06213); assay: Inhibition of IR at 10 uM
[16] = molecular target: T1, Tyrosine-protein kinase JAK3 (Homo sapiens) (UniProt P52333); assay: Inhibition of JAK3 at 10 uM
T1 sequence (whole entry): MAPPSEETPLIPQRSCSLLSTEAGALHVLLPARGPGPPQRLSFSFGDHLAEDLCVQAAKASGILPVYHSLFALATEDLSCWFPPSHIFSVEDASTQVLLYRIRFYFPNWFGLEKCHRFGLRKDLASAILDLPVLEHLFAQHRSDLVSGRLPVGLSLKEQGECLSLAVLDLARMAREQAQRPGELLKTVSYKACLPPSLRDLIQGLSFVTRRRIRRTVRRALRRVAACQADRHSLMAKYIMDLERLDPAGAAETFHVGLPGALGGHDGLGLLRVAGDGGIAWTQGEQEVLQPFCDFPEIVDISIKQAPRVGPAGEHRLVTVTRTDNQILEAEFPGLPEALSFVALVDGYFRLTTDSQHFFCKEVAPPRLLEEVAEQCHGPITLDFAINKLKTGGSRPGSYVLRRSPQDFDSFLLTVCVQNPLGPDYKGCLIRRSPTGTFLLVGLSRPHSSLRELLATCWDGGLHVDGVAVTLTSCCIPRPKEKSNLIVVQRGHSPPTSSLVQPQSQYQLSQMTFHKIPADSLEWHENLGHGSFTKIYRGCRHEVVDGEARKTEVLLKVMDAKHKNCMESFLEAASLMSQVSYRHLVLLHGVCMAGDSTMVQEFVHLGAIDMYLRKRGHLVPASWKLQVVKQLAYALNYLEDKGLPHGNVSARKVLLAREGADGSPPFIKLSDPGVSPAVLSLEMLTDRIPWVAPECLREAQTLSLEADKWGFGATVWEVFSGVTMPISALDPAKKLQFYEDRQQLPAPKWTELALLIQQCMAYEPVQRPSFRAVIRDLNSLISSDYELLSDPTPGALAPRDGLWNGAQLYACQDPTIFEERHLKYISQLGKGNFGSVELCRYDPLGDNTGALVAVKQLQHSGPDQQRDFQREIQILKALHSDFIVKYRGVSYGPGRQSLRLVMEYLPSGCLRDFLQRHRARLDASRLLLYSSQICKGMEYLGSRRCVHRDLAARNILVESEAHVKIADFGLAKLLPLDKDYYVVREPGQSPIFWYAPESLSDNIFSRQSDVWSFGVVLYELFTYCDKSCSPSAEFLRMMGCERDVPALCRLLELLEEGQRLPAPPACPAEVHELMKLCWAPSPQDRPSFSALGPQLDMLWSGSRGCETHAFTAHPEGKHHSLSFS

[17] = molecular target: Mitogen-activated protein kinase 14 (Homo sapiens) (UniProt Q16539); assay: Inhibition of p38alpha at 10 uM
[18] = molecular target: Platelet-derived growth factor receptor beta (Homo sapiens) (UniProt P09619); assay: Inhibition of PDGFRbeta at 10 uM
[19] = molecular target: Protein kinase C alpha type (Homo sapiens) (UniProt P17252); assay: Inhibition of PKCalpha at 10 uM
[20] = molecular target: Serine/threonine-protein kinase PLK3 (Homo sapiens) (UniProt Q9H4B4); assay: Inhibition of PLK3 at 10 uM
[21] = molecular target: Tyrosine-protein kinase SYK (Homo sapiens) (UniProt P43405); assay: Inhibition of Syk at 10 uM
[22] = molecular target: Angiopoietin-1 receptor (Homo sapiens) (UniProt Q02763); assay: Inhibition of Tie2 at 10 uM
[23] = Inhibition of cytochrome P450 at 10 uM; format: ADME
[24] = molecular target: 3-phosphoinositide-dependent protein kinase 1 (Homo sapiens) (UniProt O15530); assay: Inhibition of PDK1 at 10 uM
[25] = system: Rattus norvegicus; assay: Dose normalized AUC in rat at 1 mg/kg, iv and 5 mg/kg, po; format: ADME, organism-based; conditions: in vivo
[26] = Clearance in rat at 1 mg/kg, iv and 5 mg/kg, po; format: ADME, organism-based; conditions: in vivo
[27] = Volume of distribution at steady state in rat at 1 mg/kg, iv and 5 mg/kg, po; format: ADME, organism-based; conditions: in vivo, read-out: Vdss
[28] = Oral bioavailability in rat at 5 mg/kg; format: ADME, organism-based; conditions: in vivo

Tyrosine-protein kinase ABL1 (Homo sapiens), sequence (P00519 whole entry): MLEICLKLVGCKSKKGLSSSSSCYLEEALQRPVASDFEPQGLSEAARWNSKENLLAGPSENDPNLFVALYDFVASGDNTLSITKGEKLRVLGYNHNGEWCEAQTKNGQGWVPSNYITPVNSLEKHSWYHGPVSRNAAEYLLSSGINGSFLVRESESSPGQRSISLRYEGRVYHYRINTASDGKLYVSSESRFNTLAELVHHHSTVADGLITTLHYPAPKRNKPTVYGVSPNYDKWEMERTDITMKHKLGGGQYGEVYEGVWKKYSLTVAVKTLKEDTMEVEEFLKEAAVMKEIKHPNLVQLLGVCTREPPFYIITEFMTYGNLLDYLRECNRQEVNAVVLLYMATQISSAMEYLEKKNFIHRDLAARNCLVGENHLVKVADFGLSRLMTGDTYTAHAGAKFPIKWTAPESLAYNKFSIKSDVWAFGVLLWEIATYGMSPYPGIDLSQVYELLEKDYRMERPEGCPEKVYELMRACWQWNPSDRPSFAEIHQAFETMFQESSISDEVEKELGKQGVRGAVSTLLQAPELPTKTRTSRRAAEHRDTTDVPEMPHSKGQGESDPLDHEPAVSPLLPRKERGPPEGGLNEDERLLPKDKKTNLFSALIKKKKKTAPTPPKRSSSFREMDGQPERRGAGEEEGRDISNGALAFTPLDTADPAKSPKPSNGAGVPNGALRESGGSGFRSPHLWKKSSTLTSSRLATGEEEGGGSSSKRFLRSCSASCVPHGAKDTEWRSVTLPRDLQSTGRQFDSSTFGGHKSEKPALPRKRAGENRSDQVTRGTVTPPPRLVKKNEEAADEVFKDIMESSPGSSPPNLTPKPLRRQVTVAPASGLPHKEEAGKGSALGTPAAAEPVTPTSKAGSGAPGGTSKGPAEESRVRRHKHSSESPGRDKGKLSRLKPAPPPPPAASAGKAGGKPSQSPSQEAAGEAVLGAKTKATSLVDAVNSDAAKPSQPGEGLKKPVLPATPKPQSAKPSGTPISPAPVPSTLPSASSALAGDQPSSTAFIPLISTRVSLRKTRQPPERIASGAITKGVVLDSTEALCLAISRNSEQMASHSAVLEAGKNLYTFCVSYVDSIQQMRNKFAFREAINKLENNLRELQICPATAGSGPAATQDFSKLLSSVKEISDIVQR
Proto-oncogene tyrosine-protein kinase Src (Homo sapiens), sequence (P12931 2-536 limits assumed): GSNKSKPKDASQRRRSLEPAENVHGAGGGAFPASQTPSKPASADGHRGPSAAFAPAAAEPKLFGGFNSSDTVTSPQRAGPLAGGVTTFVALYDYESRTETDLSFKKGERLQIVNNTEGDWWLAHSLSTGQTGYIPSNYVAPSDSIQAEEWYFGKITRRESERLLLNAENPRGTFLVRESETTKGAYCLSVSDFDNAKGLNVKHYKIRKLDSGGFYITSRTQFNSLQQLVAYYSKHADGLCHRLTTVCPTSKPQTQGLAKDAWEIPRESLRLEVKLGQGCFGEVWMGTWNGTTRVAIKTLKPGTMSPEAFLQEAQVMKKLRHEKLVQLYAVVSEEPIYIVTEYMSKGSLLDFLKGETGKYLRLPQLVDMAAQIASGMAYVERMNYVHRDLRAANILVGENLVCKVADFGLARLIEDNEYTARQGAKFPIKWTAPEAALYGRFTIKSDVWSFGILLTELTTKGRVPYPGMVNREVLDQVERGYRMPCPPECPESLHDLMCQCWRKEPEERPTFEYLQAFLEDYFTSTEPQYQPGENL
Glycogen synthase kinase-3 beta (Homo sapiens), sequence (P49841 whole entry, looked up): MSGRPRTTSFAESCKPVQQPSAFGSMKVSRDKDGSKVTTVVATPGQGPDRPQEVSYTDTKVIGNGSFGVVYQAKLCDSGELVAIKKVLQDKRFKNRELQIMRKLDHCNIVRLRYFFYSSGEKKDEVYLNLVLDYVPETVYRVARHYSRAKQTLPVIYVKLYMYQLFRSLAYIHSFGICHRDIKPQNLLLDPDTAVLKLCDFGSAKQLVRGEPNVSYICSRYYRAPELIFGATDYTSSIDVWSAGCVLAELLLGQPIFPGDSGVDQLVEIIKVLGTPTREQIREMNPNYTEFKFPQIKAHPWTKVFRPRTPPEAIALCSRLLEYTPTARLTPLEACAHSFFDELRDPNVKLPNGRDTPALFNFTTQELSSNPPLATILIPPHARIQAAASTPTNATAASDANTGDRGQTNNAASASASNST
RAF proto-oncogene serine/threonine-protein kinase (Homo sapiens), sequence (P04049 whole entry): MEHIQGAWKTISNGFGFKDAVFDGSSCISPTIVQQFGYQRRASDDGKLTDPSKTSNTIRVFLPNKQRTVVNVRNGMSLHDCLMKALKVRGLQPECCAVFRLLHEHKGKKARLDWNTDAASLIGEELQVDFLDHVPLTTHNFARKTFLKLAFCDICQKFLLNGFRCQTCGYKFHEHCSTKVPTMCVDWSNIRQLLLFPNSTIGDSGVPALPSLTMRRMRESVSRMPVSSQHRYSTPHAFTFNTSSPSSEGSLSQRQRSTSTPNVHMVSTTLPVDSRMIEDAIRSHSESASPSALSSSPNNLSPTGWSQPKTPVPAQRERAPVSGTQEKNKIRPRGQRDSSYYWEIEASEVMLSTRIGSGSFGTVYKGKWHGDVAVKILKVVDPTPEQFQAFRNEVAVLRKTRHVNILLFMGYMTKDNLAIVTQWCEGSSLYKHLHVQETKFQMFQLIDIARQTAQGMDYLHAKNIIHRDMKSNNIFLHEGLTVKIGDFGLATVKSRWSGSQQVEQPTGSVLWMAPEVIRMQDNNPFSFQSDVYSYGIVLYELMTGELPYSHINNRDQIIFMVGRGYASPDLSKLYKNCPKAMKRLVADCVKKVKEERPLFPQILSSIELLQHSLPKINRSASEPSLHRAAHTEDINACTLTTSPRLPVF
Serine/threonine-protein kinase PLK3 (Homo sapiens), sequence (Q9H4B4 whole entry, looked up): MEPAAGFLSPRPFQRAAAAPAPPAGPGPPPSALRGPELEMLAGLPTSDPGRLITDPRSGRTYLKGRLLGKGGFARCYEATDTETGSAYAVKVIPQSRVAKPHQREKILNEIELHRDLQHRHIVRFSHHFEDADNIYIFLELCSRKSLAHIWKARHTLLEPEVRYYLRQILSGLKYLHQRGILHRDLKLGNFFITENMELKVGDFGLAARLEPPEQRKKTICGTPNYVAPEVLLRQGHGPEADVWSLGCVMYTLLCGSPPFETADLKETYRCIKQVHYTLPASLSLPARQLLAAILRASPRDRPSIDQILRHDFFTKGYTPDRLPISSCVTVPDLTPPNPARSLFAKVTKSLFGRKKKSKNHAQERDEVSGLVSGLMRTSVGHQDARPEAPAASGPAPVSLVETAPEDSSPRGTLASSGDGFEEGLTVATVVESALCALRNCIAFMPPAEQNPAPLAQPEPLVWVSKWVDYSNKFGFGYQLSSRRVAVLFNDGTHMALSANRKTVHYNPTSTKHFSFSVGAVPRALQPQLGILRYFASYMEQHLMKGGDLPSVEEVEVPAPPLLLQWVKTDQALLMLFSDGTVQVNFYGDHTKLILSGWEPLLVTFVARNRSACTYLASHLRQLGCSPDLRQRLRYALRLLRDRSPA
Dual specificity mitogen-activated protein kinase kinase 1, sequence (Q02750 whole entry): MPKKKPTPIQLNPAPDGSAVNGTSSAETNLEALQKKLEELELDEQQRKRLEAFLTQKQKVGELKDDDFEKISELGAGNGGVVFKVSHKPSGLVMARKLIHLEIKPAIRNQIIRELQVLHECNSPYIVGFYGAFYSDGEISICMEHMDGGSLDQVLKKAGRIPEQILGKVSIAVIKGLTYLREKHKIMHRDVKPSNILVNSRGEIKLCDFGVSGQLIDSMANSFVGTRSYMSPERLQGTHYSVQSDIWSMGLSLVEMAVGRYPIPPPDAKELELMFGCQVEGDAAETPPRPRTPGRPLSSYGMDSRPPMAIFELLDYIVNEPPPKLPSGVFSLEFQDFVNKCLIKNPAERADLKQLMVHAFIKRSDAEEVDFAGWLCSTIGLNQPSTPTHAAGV
Calcium/calmodulin-dependent protein kinase type 1D (Homo sapiens), sequence (Q8IU85 whole entry, looked up): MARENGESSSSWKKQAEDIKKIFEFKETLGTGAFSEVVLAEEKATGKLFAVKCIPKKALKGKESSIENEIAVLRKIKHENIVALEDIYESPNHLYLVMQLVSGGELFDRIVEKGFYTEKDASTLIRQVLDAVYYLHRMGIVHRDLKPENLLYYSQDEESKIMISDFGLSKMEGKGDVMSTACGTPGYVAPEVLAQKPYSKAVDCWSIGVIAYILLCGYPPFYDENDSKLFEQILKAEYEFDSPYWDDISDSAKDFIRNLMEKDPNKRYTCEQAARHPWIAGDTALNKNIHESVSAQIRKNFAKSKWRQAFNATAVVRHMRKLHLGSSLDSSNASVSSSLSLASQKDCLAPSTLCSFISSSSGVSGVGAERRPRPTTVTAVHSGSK

O=C(NOCCO)c1c(Nc2ccc(I)cc2F)cc(=O)n2c1CCC2
EC50 [1]: 0.005 µM | EC50 [2]: 0.013 µM | half-life [3]: 2.23 h | half-life [4]: 1.03 h

Cn1c(Nc2ccc(I)cc2F)c(C(=O)NOC[C@@H](O)CO)c2c1C(=O)CC2
IC50 [5]: 0.011 µM | EC50 [1]: 0.005 µM | EC50 [2]: 0.007 µM | half-life [3]: 1.07 h | half-life [4]: 0.9 h

O=C(NOCCO)c1c(Nc2ccc(I)cc2F)c(F)c(=O)n2c1CCCC2
IC50 [5]: 0.057 µM | EC50 [1]: 0.012 µM | EC50 [2]: 0.03 µM | half-life [3]: 1.85 h | half-life [4]: 0.683 h

Cn1c(Nc2ccc(I)cc2F)c(C(=O)NOCCO)c2c1C(=O)CC2
EC50 [1]: 0.002 µM | EC50 [2]: 0.004 µM | half-life [3]: 0.167 h | half-life [4]: 0.233 h

C#Cc1ccc(Nc2c(C(=O)NOCCO)c3n(c(=O)c2F)CCC3)c(F)c1
IC50 [5]: 0.069 µM | EC50 [1]: 0.012 µM | EC50 [2]: 0.033 µM | half-life [3]: 2.13 h | half-life [4]: > 3.33 h

O=C(NOCCO)c1c(Nc2ccc(I)cc2F)c(Cl)c(=O)n2c1CCC2
IC50 [5]: 0.109 µM | EC50 [1]: 0.003 µM | EC50 [2]: 0.005 µM | half-life [3]: 0.783 h | half-life [4]: 0.9 h

C#Cc1ccc(Nc2c(C(=O)NOC[C@H](O)CO)c3c(n2C)C(=O)CCC3)c(F)c1
IC50 [5]: 0.041 µM | EC50 [1]: 0.062 µM | EC50 [2]: 0.072 µM | half-life [3]: > 3.33 h | half-life [4]: > 3.33 h

O=C(NOC[C@@H](O)CO)c1c(Nc2ccc(I)cc2F)c(F)c(=O)n2c1CCC2
IC50 [5]: 0.094 µM | EC50 [1]: 0.044 µM | EC50 [2]: 0.139 µM | half-life [3]: > 3.33 h | half-life [4]: > 3.33 h | inhibition [6]: inactive | inhibition [7]: inactive | inhibition [8]: inactive | inhibition [9]: inactive | inhibition [10]: inactive | inhibition [11]: inactive | inhibition [12]: inactive | inhibition [13]: inactive | inhibition [14]: inactive | inhibition [15]: inactive | inhibition [16]: inactive | inhibition [17]: inactive | inhibition [18]: inactive | inhibition [19]: inactive | inhibition [20]: inactive | inhibition [21]: inactive | inhibition [22]: inactive | inhibition (INH) [23]: Not Active | inhibition [24]: inactive

Cn1c(Nc2ccc(I)cc2F)c(C(=O)NOC[C@H](O)CO)c2c1C(=O)CC2
IC50 [5]: 0.054 µM | EC50 [1]: 0.009 µM | EC50 [2]: 0.013 µM | half-life [3]: 1.43 h | half-life [4]: 0.9 h

Cn1c(Nc2ccc(Br)cc2F)c(C(=O)NOCCO)c2c1C(=O)CCC2
IC50 [5]: 0.018 µM | EC50 [1]: 0.034 µM | EC50 [2]: 0.031 µM | half-life [3]: 0.417 h | half-life [4]: 0.333 h

CC(=O)c1cc(C(=O)NOCCO)c(Nc2ccc(I)cc2F)n1C
EC50 [1]: 0.012 µM | EC50 [2]: 0.014 µM | AUC/dose [25]: 144 ng·h/mL/mg/kg

Cn1c(Nc2ccc(Br)cc2F)c(C(=O)NOC[C@H](O)CO)c2c1C(=O)CCC2
IC50 [5]: 0.052 µM | EC50 [1]: 0.058 µM | EC50 [2]: 0.072 µM | half-life [3]: 1.57 h | half-life [4]: 1.42 h

Cn1c(Nc2ccc(I)cc2F)c(C(=O)NOCCO)c2c1C(=O)CCC2
IC50 [5]: 0.014 µM | EC50 [1]: 0.001 µM | EC50 [2]: 0.001 µM | half-life [3]: 0.0617 h | half-life [4]: 0.0917 h

O=C(NOCCO)c1c(Nc2ccc(I)cc2F)c(F)c(=O)n2c1CCC2
IC50 [5]: 0.025 µM | EC50 [1]: 0.001 µM | EC50 [2]: 0.003 µM | half-life [3]: > 3.33 h | half-life [4]: 2.07 h | clearance [26]: 12.9 mL/min/kg | AUC/dose [25]: 262 ng·h/mL/mg/kg | Vd [27]: 0.745 L/kg | bioavailability [28]: 21% | inhibition [6]: inactive | inhibition [7]: inactive | inhibition [8]: inactive | inhibition [9]: inactive | inhibition [10]: inactive | inhibition [11]: inactive | inhibition [12]: inactive | inhibition [13]: inactive | inhibition [14]: inactive | inhibition [15]: inactive | inhibition [16]: inactive | inhibition [17]: inactive | inhibition [18]: inactive | inhibition [19]: inactive | inhibition [20]: inactive | inhibition [21]: inactive | inhibition [22]: inactive | inhibition (INH) [23]: Not Active | inhibition [24]: inactive

Cn1c(Nc2ccc(Br)cc2F)c(C(=O)NOC[C@@H](O)CO)c2c1C(=O)CCC2
IC50 [5]: 0.076 µM | EC50 [1]: 0.053 µM | EC50 [2]: 0.076 µM | half-life [3]: 1.27 h | half-life [4]: 1.17 h

C#Cc1ccc(Nc2c(C(=O)NOCCO)c3c(n2C)C(=O)CC3)c(F)c1
IC50 [5]: 0.036 µM | EC50 [1]: 0.017 µM | EC50 [2]: 0.034 µM | half-life [3]: 1.78 h | half-life [4]: 2.5 h | clearance [26]: 15.6 mL/min/kg | AUC/dose [25]: 512 ng·h/mL/mg/kg | Vd [27]: 1.19 L/kg | bioavailability [28]: 51% | inhibition [6]: inactive | inhibition [7]: inactive | inhibition [8]: inactive | inhibition [9]: inactive | inhibition [10]: inactive | inhibition [11]: inactive | inhibition [12]: inactive | inhibition [13]: inactive | inhibition [14]: inactive | inhibition [15]: inactive | inhibition [16]: inactive | inhibition [17]: inactive | inhibition [18]: inactive | inhibition [19]: inactive | inhibition [20]: inactive | inhibition [21]: inactive | inhibition [22]: inactive | inhibition (INH) [23]: Not Active | inhibition [24]: inactive

Cn1c(Nc2ccc(I)cc2F)c(C(=O)NOC[C@@H](O)CO)c2c1C(=O)CCC2
IC50 [5]: 0.017 µM | EC50 [1]: 0.002 µM | EC50 [2]: 0.0025 µM | half-life [3]: 0.367 h | half-life [4]: 0.6 h

O=C(NOC[C@H](O)CO)c1c(Nc2ccc(I)cc2F)c(F)c(=O)n2c1CCC2
IC50 [5]: 0.039 µM | EC50 [1]: 0.027 µM | EC50 [2]: 0.069 µM | half-life [3]: > 3.33 h | half-life [4]: > 3.33 h
